From patent US8513238B2 (Hoffmann-La Roche Inc., priority 2010, dated 2013)
Where a name gives a salt, the structure may show the parent alone.

Biological target: T1, human V1a receptor (Homo sapiens, UniProt P37288)
T1 construct: expressed in transfected cells; host or cells: HEK293 cells, transiently transfected; membranes prepared
Experiment: human V1a receptor binding (3H-Vasopressin SPA, HEK293 membranes)
Settings: membranes of HEK293 cells transiently transfected with human V1a receptor, Ki by Cheng-Prussoff, read-out: pKi (hV1a) (converted)
Description: The human V1a receptor was cloned by RT-PCR from total human liver RNA. The coding sequence was subcloned in an expression vector after sequencing to confirm the identity of the amplified sequence. […] Cell membranes were prepared from HEK293 cells transiently transfected with the expression vector and grown in 20 liter fermenters with the following protocol.
50 g of cells are resuspended in 30 ml freshly prepared ice cold Lysis buffer (50 mM HEPES, 1 mM EDTA, 10 mM magnesium dichloride adjusted to pH=7.4+complete cocktail of protease inhibitor (Roche Diagnostics)). Homogenized with Polytron for 1 min and sonicated on ice for 2×2 minutes at 80% intensity (Vibracell sonicator). The preparation is centrifuged 20 min at 500 g at 4° C., the pellet is discarded and the supernatant centrifuged 1 hour at 43,000 g at 4° C. (19,000 rpm). The pellet is resuspended in 12.5 ml Lysis buffer+12.5 ml sucrose 20% and homogenized using a Polytron for 1-2 min. The protein concentration is determined by the Bradford method and aliquots are stored at −80° C. until use. For binding studies 60 mg Yttrium silicate SPA beads (Amersham®) are mixed with an aliquot of membrane in binding buffer (50 mM Tris, 120 mM sodium chloride, 5 mM potassium chloride, 2 mM calcium dichloride, 10 mM magnesium dichloride) for 15 minutes with mixing. 50 μl of bead/membrane mixture is then added to each well of a 96 well plate, followed by 50 μl of 4 nM 3H-Vasopressin (American Radiolabeled Chemicals). For total binding measurement 100 μl of binding buffer are added to the respective wells, for non-specific binding 100 μl of 8.4 mM cold vasopressin and for compound testing 100 μl of a serial dilution of each compound in 2% dimethyl sulfoxide. The plate is incubated 1 h at room temperature, centrifuged 1 min at 1000 g and counted on a Packard Top-Count. Non-specific binding counts are subtracted from each well and data is normalized to the maximum specific binding set at 100%. To calculate an IC50 the curve is fitted using a non-linear regression model (XLfit) and the Ki is calculated using the Cheng-Prussoff equation.

T1 sequence (P37288 whole entry): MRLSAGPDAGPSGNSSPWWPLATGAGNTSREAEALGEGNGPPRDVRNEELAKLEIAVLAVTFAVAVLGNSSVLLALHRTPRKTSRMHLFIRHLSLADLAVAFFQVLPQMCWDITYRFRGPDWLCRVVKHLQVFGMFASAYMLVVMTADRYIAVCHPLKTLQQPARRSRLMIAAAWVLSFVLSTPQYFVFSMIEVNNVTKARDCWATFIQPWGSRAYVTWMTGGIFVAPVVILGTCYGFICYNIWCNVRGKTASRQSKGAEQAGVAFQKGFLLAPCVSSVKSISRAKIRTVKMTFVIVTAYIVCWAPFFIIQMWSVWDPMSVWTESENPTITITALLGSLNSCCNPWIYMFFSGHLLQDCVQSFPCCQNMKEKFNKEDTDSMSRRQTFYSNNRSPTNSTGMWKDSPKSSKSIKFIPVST

Row | Compound | Ki [nM]
1 | Clc1ccc2c(c1)CNCc1nnc([C@H]3CC[C@H](c4noc5c4CCCC5)CC3)n1-2 [Example 55, trans-8-Chloro-1-[4-(4,5,6,7-tetrahydro-benzo[d]isoxazol-3-yl)-cyclohexyl]-5,6-dihydro-4H-2,3,5,10b-tetraaza-benzo[e]azulene] | 5.89
2 | CN1Cc2cc(Cl)ccc2-n2c(nnc2[C@H]2CC[C@H](c3noc4c3CCCC4)CC2)C1 [Example 56, trans-8-Chloro-5-methyl-1-[4-(4,5,6,7-tetrahydro-benzo[d]isoxazol-3-yl)-cyclohexyl]-5,6-dihydro-4H-2,3,5,10b-tetraaza-benzo[e]azulene] | 1.58
3 | CC(C)(C)OC(=O)N1Cc2cc(Cl)ccc2-n2c(nnc2[C@H]2CC[C@@H](c3noc4c3CCCC4)CC2)C1 [Example 57, cis-8-Chloro-1-[4-(4,5,6,7-tetrahydro-benzo[d]isoxazol-3-yl)-cyclohexyl]-4H,6H-2,3,5,10b-tetraaza-benzo[e]azulene-5-carboxylic acid tert-butyl ester] | 46.8
4 | Clc1ccc2c(c1)CNCc1nnc([C@H]3CC[C@@H](c4noc5c4CCCC5)CC3)n1-2 [Example 58, cis-8-Chloro-1-[4-(4,5,6,7-tetrahydro-benzo[d]isoxazol-3-yl)-cyclohexyl]-5,6-dihydro-4H-2,3,5,10b-tetraaza-benzo[e]azulene] | 191
5 | CN1Cc2cc(Cl)ccc2-n2c(nnc2[C@H]2CC[C@@H](c3noc4c3CCCC4)CC2)C1 [Example 59, cis-8-Chloro-5-methyl-1-[4-(4,5,6,7-tetrahydro-benzo[d]isoxazol-3-yl)-cyclohexyl]-5,6-dihydro-4H-2,3,5,10b-tetraaza-benzo[e]azulene] | 8.13
6 | CC(C)(C)OC(=O)N1Cc2cc(Cl)ccc2-n2c(nnc2[C@H]2CC[C@H](c3onc4c3CCCC4)CC2)C1 [Example 60, trans-8-Chloro-1-[4-(4,5,6,7-tetrahydro-benzo[c]isoxazol-3-yl)-cyclohexyl]-4H,6H-2,3,5,10b-tetraaza-benzo[e]azulene-5-carboxylic acid tert-butyl ester] | 15.5
7 | Clc1ccc2c(c1)CNCc1nnc([C@H]3CC[C@H](c4onc5c4CCCC5)CC3)n1-2 [Example 61, trans-8-Chloro-1-[4-(4,5,6,7-tetrahydro-benzo[c]isoxazol-3-yl)-cyclohexyl]-5,6-dihydro-4H-2,3,5,10b-tetraaza-benzo[e]azulene] | 30.2
8 | CN1Cc2cc(Cl)ccc2-n2c(nnc2[C@H]2CC[C@H](c3onc4c3CCCC4)CC2)C1 [Example 62, trans-8-Chloro-5-methyl-1-[4-(4,5,6,7-tetrahydro-benzo[c]isoxazol-3-yl)-cyclohexyl]-5,6-dihydro-4H-2,3,5,10b-tetraaza-benzo[e]azulene] | 6.31
9 | Cc1nnc([C@H]2CC[C@H](c3nnc4n3-c3ccc(Cl)cc3CN(C(=O)OC(C)(C)C)C4)CC2)o1 [Example 63, trans-8-Chloro-1-[4-(5-methyl-[1,3,4]oxadiazol-2-yl)-cyclohexyl]-4H,6H-2,3,5,10b-tetraaza-benzo[e]azulene-5-carboxylic acid tert-butyl ester] | 1.58
10 | Cc1nnc([C@H]2CC[C@H](c3nnc4n3-c3ccc(Cl)cc3CNC4)CC2)o1 [Example 64, trans-8-Chloro-1-[4-(5-methyl-[1,3,4]oxadiazol-2-yl)-cyclohexyl]-5,6-dihydro-4H-2,3,5,10b-tetraaza-benzo[e]azulene] | 204
11 | Cc1nnc([C@H]2CC[C@H](c3nnc4n3-c3ccc(Cl)cc3CN(C)C4)CC2)o1 [Example 65, trans-8-Chloro-5-methyl-1-[4-(5-methyl-[1,3,4]oxadiazol-2-yl)-cyclohexyl]-5,6-dihydro-4H-2,3,5,10b-tetraaza-benzo[e]azulene] | 15.8
12 | Cc1noc([C@H]2CC[C@H](c3nnc4n3-c3ccc(Cl)cc3CN(C(=O)OC(C)(C)C)C4)CC2)n1 [Example 66, trans-8-Chloro-1-[4-(3-methyl-[1,2,4]oxadiazol-5-yl)-cyclohexyl]-4H,6H-2,3,5,10b-tetraaza-benzo[e]azulene-5-carboxylic acid tert-butyl ester] | 2.88
13 | Cc1noc([C@H]2CC[C@H](c3nnc4n3-c3ccc(Cl)cc3CNC4)CC2)n1 [Example 67, trans-8-Chloro-1-[4-(3-methyl-[1,2,4]oxadiazol-5-yl)-cyclohexyl]-5,6-dihydro-4H-2,3,5,10b-tetraaza-benzo[e]azulene hydrochloride] | 67.6
14 | Cc1noc([C@H]2CC[C@H](c3nnc4n3-c3ccc(Cl)cc3CN(C)C4)CC2)n1 [Example 68, trans-8-Chloro-5-methyl-1-[4-(3-methyl-[1,2,4]oxadiazol-5-yl)-cyclohexyl]-5,6-dihydro-4H-2,3,5,10b-tetraaza-benzo[e]azulene] | 6.61
15 | Cc1nsc([C@H]2CC[C@H](c3nnc4n3-c3ccc(Cl)cc3CN(C(=O)OC(C)(C)C)C4)CC2)n1 [Example 69, trans-8-Chloro-1-[4-(3-methyl-[1,2,4]thiadiazol-5-yl)-cyclohexyl]-4H,6H-2,3,5,10b-tetraaza-benzo[e]azulene-5-carboxylic acid tert-butyl ester] | 1.51
16 | Cc1nsc([C@H]2CC[C@H](c3nnc4n3-c3ccc(Cl)cc3CNC4)CC2)n1 [Example 70, trans-8-Chloro-1-[4-(3-methyl-[1,2,4]thiadiazol-5-yl)-cyclohexyl]-5,6-dihydro-4H-2,3,5,10b-tetraaza-benzo[e]azulene] | 129
17 | Cc1nsc([C@H]2CC[C@H](c3nnc4n3-c3ccc(Cl)cc3CN(C)C4)CC2)n1 [Example 71, trans-8-Chloro-5-methyl-1-[4-(3-methyl-[1,2,4]thiadiazol-5-yl)-cyclohexyl]-5,6-dihydro-4H-2,3,5,10b-tetraaza-benzo[e]azulene] | 15.1
18 | Cc1nc([C@H]2CC[C@H](c3nnc4n3-c3ccc(Cl)cc3CN(C(=O)OC(C)(C)C)C4)CC2)no1 [Example 72, trans-8-Chloro-1-[4-(5-methyl-[1,2,4]oxadiazol-3-yl)-cyclohexyl]-4H,6H-2,3,5,10b-tetraaza-benzo[e]azulene-5-carboxylic acid tert-butyl ester] | 0.708
19 | Cc1nc([C@H]2CC[C@H](c3nnc4n3-c3ccc(Cl)cc3CNC4)CC2)no1 [Example 73, trans-8-Chloro-1-[4-(5-methyl-[1,2,4]oxadiazol-3-yl)-cyclohexyl]-5,6-dihydro-4H-2,3,5,10b-tetraaza-benzo[e]azulene hydrochloride] | 15.8
20 | Cc1nc([C@H]2CC[C@H](c3nnc4n3-c3ccc(Cl)cc3CN(C)C4)CC2)no1 [Example 74, trans-8-Chloro-5-methyl-1-[4-(5-methyl-[1,2,4]oxadiazol-3-yl)-cyclohexyl]-5,6-dihydro-4H-2,3,5,10b-tetraaza-benzo[e]azulene] | 3.24
21 | CCN1Cc2cc(Cl)ccc2-n2c(nnc2[C@H]2CC[C@H](c3noc(C)n3)CC2)C1 [Example 75, trans-8-Chloro-5-ethyl-1-[4-(5-methyl-[1,2,4]oxadiazol-3-yl)-cyclohexyl]-5,6-dihydro-4H-2,3,5,10b-tetraaza-benzo[e]azulene] | 6.76
22 | Cc1nc([C@H]2CC[C@H](c3nnc4n3-c3ccc(Cl)cc3CN(C(C)C)C4)CC2)no1 [Example 76, trans-8-Chloro-5-isopropyl-1-[4-(5-methyl-[1,2,4]oxadiazol-3-yl)-cyclohexyl]-5,6-dihydro-4H-2,3,5,10b-tetraaza-benzo[e]azulene] | 10
